Results on eleven compounds are retold here after patent publication US11753445B2, “Therapeutic peptides” (COHBAR, INC., priority 2016, dated 2023).

Structures are written as SMILES. Peptide text beside a SMILES is read from it.

The experiment concerns 3T3-L1 Adipocytes. Description: Free fatty acid levels in cultured mouse 3T3-L1 adipocytes, isoproterenol stimulated (Example 2). Type of experiment: cell-based. As to conditions: test peptides 25 μM; isoproterenol 1 nM. The procedure, abridged: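 3T3-L1 cells differentiated 12–17 days into adipocytes, then exposed to test peptides at 25 μM final for 18–20 h, then 1 h, then 3 h with isoproterenol (1 nM) at 37 °C. Free fatty acids in the medium measured colorimetrically at 540 nm, corrected for untreated background and expressed relative to isoproterenol-only cells.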
Take `CC[C@H](C)[C@H](NC(=O)[C@H](Cc1ccc(O)cc1)NC(=O)CNC(=O)[C@H](CCC(=O)O)NC(=O)[C@H](CCC(=O)O)NC(=O)[C@H](CCC(N)=O)NC(=O)[C@H](Cc1c[nH]c2ccccc12)NC(=O)[C@H](CCCNC(=N)N)NC(=O)[C@@H](C)N)C(=O)N[C@@H](Cc1ccccc1)C(=O)N[C@@H](Cc1ccc(O)cc1)C(=O)N1CCC[C@H]1C(=O)N[C@@H](CCCNC(=N)N)C(=O)N[C@@H](CCCCN)C(=O)N[C@@H](CC(C)C)C(=O)N[C@H](C)C(=O)O` [compound 231] (HELM PEPTIDE1{[dA].R.W.Q.E.E.G.Y.I.F.Y.P.R.K.L.[dA]}$$$$V2.0): the “Free Fatty Acid Levels in 3T3-L1 Adipocytes Expressed as a Percent of Isoproterenol Control: Percent of Control Value” amounted to 61.6%.
To `CC[C@H](C)[C@H](NC(=O)[C@H](Cc1ccc(O)cc1)NC(=O)CNC(=O)[C@H](CCC(=O)O)NC(=O)[C@H](CCC(=O)O)NC(=O)[C@H](CCC(N)=O)NC(=O)[C@H](Cc1c[nH]c2ccccc12)NC(=O)[C@H](CCCNC(=N)N)NC(=O)[C@@H](C)N)C(=O)N[C@@H](Cc1ccccc1)C(=O)N[C@@H](Cc1ccc(O)cc1)C(=O)N1CCC[C@H]1C(=O)N[C@@H](CCCNC(=N)N)C(=O)O` [compound 232] (HELM PEPTIDE1{[dA].R.W.Q.E.E.G.Y.I.F.Y.P.R}$$$$V2.0) belongs 46.5%; to `CC[C@H](C)[C@H](NC(=O)[C@H](Cc1ccc(O)cc1)NC(=O)CNC(=O)[C@H](C)NC(=O)[C@H](CCC(=O)O)NC(=O)[C@H](CCC(N)=O)NC(=O)[C@H](Cc1c[nH]c2ccccc12)NC(=O)[C@H](CCCNC(=N)N)NC(=O)[C@@H](N)CCC(=O)O)C(=O)N[C@@H](Cc1ccccc1)C(=O)N[C@@H](Cc1ccc(O)cc1)C(=O)N1CCC[C@H]1C(=O)N[C@@H](CCCNC(=N)N)C(=O)N[C@@H](CCCCN)C(=O)N[C@@H](CC(C)C)C(=O)N[C@H](C)C(=O)O` [compound 234] (HELM PEPTIDE1{E.R.W.Q.E.A.G.Y.I.F.Y.P.R.K.L.[dA]}$$$$V2.0), 73.8%.
To `CC[C@H](C)[C@H](NC(=O)[C@H](Cc1ccc(O)cc1)NC(=O)CNC(=O)[C@H](CCC(=O)O)NC(=O)[C@H](CCC(=O)O)NC(=O)[C@H](CCC(N)=O)NC(=O)[C@H](Cc1c[nH]c2ccccc12)NC(=O)[C@H](CCCNC(=N)N)NC(=O)[C@@H](C)N)C(=O)N[C@@H](C)C(=O)N[C@@H](Cc1ccc(O)cc1)C(=O)N1CCC[C@H]1C(=O)N[C@@H](CCCNC(=N)N)C(=O)N[C@@H](CCCCN)C(=O)N[C@@H](CC(C)C)C(=O)N[C@@H](C)C(=O)O` [compound 236] (HELM PEPTIDE1{[dA].R.W.Q.E.E.G.Y.I.A.Y.P.R.K.L.A}$$$$V2.0) belongs 74.8%; to `CC[C@H](C)[C@H](NC(=O)[C@H](Cc1ccc(O)cc1)NC(=O)CNC(=O)[C@H](CCC(=O)O)NC(=O)[C@H](CCC(=O)O)NC(=O)[C@H](CCC(N)=O)NC(=O)[C@H](Cc1c[nH]c2ccccc12)NC(=O)[C@H](CCCNC(=N)N)NC(=O)[C@@H](C)N)C(=O)N[C@@H](C)C(=O)N[C@@H](Cc1ccc(O)cc1)C(=O)N1CCC[C@H]1C(=O)N[C@@H](CCCNC(=N)N)C(=O)N[C@@H](CCCCN)C(=O)N[C@@H](CC(C)C)C(=O)N[C@H](C)C(=O)O` [compound 237] (HELM PEPTIDE1{[dA].R.W.Q.E.E.G.Y.I.A.Y.P.R.K.L.[dA]}$$$$V2.0), 85.6%; to `CC[C@H](C)[C@H](NC(=O)[C@H](Cc1ccc(O)cc1)NC(=O)CNC(=O)[C@H](CCC(=O)O)NC(=O)[C@H](CCC(=O)O)NC(=O)[C@H](CCC(N)=O)NC(=O)[C@H](Cc1c[nH]c2ccccc12)NC(=O)[C@H](CCCNC(=N)N)NC(=O)[C@@H](C)N)C(=O)N[C@@H](C)C(=O)N[C@@H](Cc1ccc(O)cc1)C(=O)N1CCC[C@H]1C(=O)N[C@@H](CCCNC(=N)N)C(=O)O` [compound 238] (HELM PEPTIDE1{[dA].R.W.Q.E.E.G.Y.I.A.Y.P.R}$$$$V2.0), 52.9%.
Turning to `CC[C@H](C)[C@H](NC(=O)[C@H](Cc1ccc(O)cc1)NC(=O)CNC(=O)[C@H](C)NC(=O)[C@H](CCC(=O)O)NC(=O)[C@H](CCC(N)=O)NC(=O)[C@H](Cc1c[nH]c2ccccc12)NC(=O)[C@H](CCCNC(=N)N)NC(=O)[C@@H](N)CCC(=O)O)C(=O)N[C@@H](C)C(=O)N[C@@H](Cc1ccc(O)cc1)C(=O)N1CCC[C@H]1C(=O)N[C@@H](CCCNC(=N)N)C(=O)N[C@@H](CCCCN)C(=O)N[C@@H](CC(C)C)C(=O)N[C@H](C)C(=O)O` [compound 240] (HELM PEPTIDE1{E.R.W.Q.E.A.G.Y.I.A.Y.P.R.K.L.[dA]}$$$$V2.0), the “Free Fatty Acid Levels in 3T3-L1 Adipocytes Expressed as a Percent of Isoproterenol Control: Percent of Control Value” turned out to be 48.6%.
For the compound `CC[C@H](C)[C@H](NC(=O)[C@H](Cc1ccc(O)cc1)NC(=O)CNC(=O)[C@H](C)NC(=O)[C@H](CCC(=O)O)NC(=O)[C@H](CCC(N)=O)NC(=O)[C@H](Cc1c[nH]c2ccccc12)NC(=O)[C@H](CCCNC(=N)N)NC(=O)[C@@H](C)N)C(=O)N[C@@H](Cc1ccccc1)C(=O)N[C@@H](CCC(=O)O)C(=O)N1CCC[C@H]1C(=O)N[C@@H](CCCNC(=N)N)C(=O)N[C@@H](CCCCN)C(=O)N[C@@H](CC(C)C)C(=O)N[C@@H](C)C(=O)O` [compound 242] (HELM PEPTIDE1{[dA].R.W.Q.E.A.G.Y.I.F.E.P.R.K.L.A}$$$$V2.0), the “Free Fatty Acid Levels in 3T3-L1 Adipocytes Expressed as a Percent of Isoproterenol Control: Percent of Control Value” is recorded as 64.9%.
The same measure for `CC[C@H](C)[C@H](NC(=O)[C@H](Cc1ccc(O)cc1)NC(=O)CNC(=O)[C@H](C)NC(=O)[C@H](CCC(=O)O)NC(=O)[C@H](CCC(N)=O)NC(=O)[C@H](Cc1c[nH]c2ccccc12)NC(=O)[C@H](CCCNC(=N)N)NC(=O)[C@@H](C)N)C(=O)N[C@@H](Cc1ccccc1)C(=O)N[C@@H](CCC(=O)O)C(=O)N1CCC[C@H]1C(=O)N[C@@H](CCCNC(=N)N)C(=O)N[C@@H](CCCCN)C(=O)N[C@@H](CC(C)C)C(=O)N[C@H](C)C(=O)O` [compound 243] (HELM PEPTIDE1{[dA].R.W.Q.E.A.G.Y.I.F.E.P.R.K.L.[dA]}$$$$V2.0): 82.3%.
With `CC[C@H](C)[C@H](NC(=O)[C@H](Cc1ccc(O)cc1)NC(=O)CNC(=O)[C@H](C)NC(=O)[C@H](CCC(=O)O)NC(=O)[C@H](CCC(N)=O)NC(=O)[C@H](Cc1c[nH]c2ccccc12)NC(=O)[C@H](CCCNC(=N)N)NC(=O)[C@@H](C)N)C(=O)N[C@@H](Cc1ccccc1)C(=O)N[C@@H](CCC(=O)O)C(=O)N1CCC[C@H]1C(=O)N[C@@H](CCCNC(=N)N)C(=O)O` [compound 244] (HELM PEPTIDE1{[dA].R.W.Q.E.A.G.Y.I.F.E.P.R}$$$$V2.0), the “Free Fatty Acid Levels in 3T3-L1 Adipocytes Expressed as a Percent of Isoproterenol Control: Percent of Control Value” worked out at 90.3%.
For `CC[C@H](C)[C@H](NC(=O)[C@H](Cc1ccc(O)cc1)NC(=O)CNC(=O)[C@H](C)NC(=O)[C@H](CCC(=O)O)NC(=O)[C@H](CCC(N)=O)NC(=O)[C@H](Cc1c[nH]c2ccccc12)NC(=O)[C@H](CCCNC(=N)N)NC(=O)[C@@H](C)N)C(=O)N[C@@H](C)C(=O)N[C@@H](CCC(=O)O)C(=O)N1CCC[C@H]1C(=O)N[C@@H](CCCNC(=N)N)C(=O)N[C@@H](CCCCN)C(=O)N[C@@H](CC(C)C)C(=O)N[C@@H](C)C(=O)O` [compound 245] (HELM PEPTIDE1{[dA].R.W.Q.E.A.G.Y.I.A.E.P.R.K.L.A}$$$$V2.0), the “Free Fatty Acid Levels in 3T3-L1 Adipocytes Expressed as a Percent of Isoproterenol Control: Percent of Control Value” is reported as 78.1%.
